Where “and” joins values, the source holds several entries; their conditions need not be identical. Equal entries are not always repeated.
Biological target: Replicase polyprotein 1ab (Severe acute respiratory syndrome coronavirus 2, UniProt P0DTD1)
Experiment: Functional biochemical assay to identify treatments for viral infectious disease that targets SARS-COV-2 nsp3 macrodomain, whereby the mechanism of action displaces an ADP-Ribose modified peptide from the binding site. Utilizing a time-resolved fluorescence method to measure binding by reading the emitted fluorescence intensity in two wavelengths.

Row | SMILES | IC50
1 | CC(C)[C@@H](Nc1ncnc2[nH]c(C(=O)NCc3ccn(C)n3)cc12)c1ccc2c(c1)OCCO2 | 0.955 µM and 1.04 µM
2 | CC(C)[C@@H](Nc1ncnc2[nH]c(-c3cnn(CC4CC4)c3)cc12)c1ccc2c(c1)OCCO2 | 0.804 µM and 0.853 µM
3 | COCCn1cc(-c2cc3c(N[C@@H](c4ccc5c(c4)OCCO5)C(C)C)ncnc3[nH]2)c(C#N)n1 | 0.676 µM and 0.868 µM
4 | CC(C)[C@@H](Nc1ncnc2[nH]c(C(=O)NCC3CN(C)C3)cc12)c1ccc2c(c1)OCCO2 | 0.866 µM and 0.79 µM
5 | COc1ccc2c(c1)CCN(c1ncnc3[nH]ccc13)[C@H]2C(C)C | 14.2 µM and 12 µM
6 | CC(C)[C@@H](Nc1ncnc2[nH]ccc12)c1cnn(C)c1 | 3.93 µM and 3.17 µM
7 | CC(C)[C@H](Nc1ncnc2[nH]c(-c3cnn(C)c3C#N)cc12)c1ccc2c(c1)NC(=O)CO2 | 0.176 µM
8 | COc1ccc([C@@H](Nc2ncnc3[nH]ccc23)C(C)C)cc1OC | > 99.5 µM
9 | CC(C)[C@H](Nc1cccc2nc[nH]c(=O)c12)c1ccc2c(c1)S(=O)(=O)CCC2 | > 99.5 µM
10 | CCC[C@H](Nc1ncnc2[nH]ccc12)C(=O)O | > 99.5 µM
11 | COc1ccc([C@@H](CC(=O)O)NC(=O)c2ccc(NC(=O)NC3CC3)cc2)cc1 | 57.5 µM and 37.8 µM
12 | COc1cccc([C@@H](CC(=O)O)NC(=O)c2ncnc3[nH]ccc23)c1 | 16.3 µM and 21.7 µM
13 | COC(=O)c1c[nH]c2ncnc(N[C@@H](c3ccc4c(c3)OCCO4)C(C)C)c12 | 3.11 µM and 3.49 µM
14 | CC(C)[C@@H](Nc1ncnc2[nH]ccc12)c1ccncc1 | > 12.4 µM and 34 µM
15 | COc1c(Cl)ncnc1N[C@@H](c1ccc2c(c1)S(=O)(=O)CCC2)C(C)C | > 99.5 µM
16 | c1ccc(-c2cc(CNc3ncnc4[nH]ccc34)on2)cc1 | > 124 µM
17 | Cc1nnc(CNC(=O)c2cc3c(N[C@@H](c4ccc5c(c4)OCCO5)C(C)C)ncnc3[nH]2)o1 | 1.12 µM
18 | COc1ccc([C@H](CC(=O)O)NC(=O)c2ncnc3[nH]ccc23)cc1 | 1.44 µM
19 | CC(C)[C@@H](Nc1ncnc2[nH]c(C(=O)NCc3nncn3C)cc12)c1ccc2c(c1)OCCO2 | 1.39 µM and 1.23 µM
20 | CC(C)[C@@H](Nc1ncnc2[nH]c(-c3ccc(S(C)(=O)=O)nc3)cc12)c1ccc2c(c1)S(=O)(=O)CCC2 | 0.049 µM and 0.054 µM and 0.094 µM and 0.06 µM and 0.069 µM
21 | CC(C)[C@@H](Nc1ccncn1)c1ccc2c(c1)S(=O)(=O)CCC2 | > 99.5 µM
22 | CC(C)[C@@H](Nc1ncnc2[nH]c(C(=O)NCCc3cnco3)cc12)c1ccc2c(c1)OCCO2 | 0.954 µM and 1.91 µM
23 | O=C(O)C[C@@H](NC(=O)c1ccnc2ncccc12)c1ccc(Br)cc1 | 87.9 µM and 92.8 µM
24 | CC(C)[C@@H](Nc1ncnc2c1cnn2C)c1ccc2c(c1)OCCO2 | > 99.5 µM

Row | SMILES | IC50
25 | Cn1cc([C@@H](Nc2ncnc3[nH]ccc23)C2CCC2)cn1 | 15 µM
26 | CN(C)c1ccc(C(=O)N[C@@H](CC(=O)O)c2ccc(Br)cc2)nc1 | > 99.5 µM
27 | CC(C)[C@@H](Nc1ncnc2[nH]c(-c3cccc4c3NC(=O)C4)cc12)c1ccc2c(c1)S(=O)(=O)CCC2 | 0.36 µM
28 | CC(C)[C@@H](Nc1ncnc2[nH]c(-c3cccc(CN4CCCS4(=O)=O)c3)cc12)c1ccc2c(c1)OCCO2 | > 99.5 µM
29 | CC(C)[C@@H](NC(=O)c1ncnc2[nH]ccc12)c1ccc2c(c1)S(=O)(=O)CCC2 | > 99.5 µM
30 | CC(C)[C@H](Nc1ncnc2[nH]c(-c3cnn(CC(=O)N(C)C)c3)cc12)c1ccc2c(c1)OCCO2 | 0.235 µM and 0.395 µM
31 | CC(C)[C@@H](NC(=O)Cc1ncnc2[nH]ccc12)c1ccc2c(c1)S(=O)(=O)CCC2 | > 99.5 µM
32 | O=C(O)c1cn(CCCNC(=O)c2ncnc3[nH]ccc23)nn1 | > 99.5 µM
33 | CC(C)[C@@H](Nc1ncnc2[nH]c(C(=O)NCC3(F)CC3)cc12)c1ccc2c(c1)OCCO2 | 1.36 µM and 2.02 µM
34 | COC(=O)c1cc(-c2cc3c(N[C@@H](c4ccc5c(c4)OCCO5)C(C)C)ncnc3[nH]2)c[nH]1 | 4.97 µM and 5 µM
35 | Cc1[nH]c2ncnc(NC(=O)c3ccc(-n4cnnc4)cc3)c2c1C | > 99.5 µM
36 | CC(C)[C@@H](Nc1ncnc2c1CCO2)c1ccc2c(c1)S(=O)(=O)CCC2 | 62.9 µM
37 | CC(C)[C@@H](Nc1cc(N2CCC[C@H]2C(=O)O)ncn1)c1ccc2c(c1)S(=O)(=O)CCC2 | > 99.5 µM
38 | Cc1n[nH]c(-c2cc3c(N[C@@H](c4ccc5c(c4)OCCO5)C(C)C)ncnc3[nH]2)c1C | 5.16 µM and 4.51 µM
39 | Cc1[nH]c2ncnc(NC(=O)c3ccc(Cl)nn3)c2c1C | > 99.5 µM
40 | CC(C)[C@@H](Nc1ncnc2[nH]c(-c3cncc(C#N)c3)cc12)c1ccc2c(c1)OCCO2 | 5.81 µM and 7.13 µM
41 | CC(C)[C@@H](Nc1ncnc2[nH]c(-c3ccnc(OCCN(C)C)c3)cc12)c1ccc2c(c1)S(=O)(=O)CCC2 | 0.114 µM
42 | CC(C)[C@@H](Nc1ncnc2[nH]c(-c3ccn(C)n3)cc12)c1ccc2c(c1)OCCO2 | 0.972 µM and 1.02 µM
43 | Cc1[nH]c2ncnc(NC(=O)CCc3ccccc3)c2c1C | > 99.5 µM
44 | CC(C)[C@H](Nc1ncnc2[nH]nnc12)c1ccc2c(c1)S(=O)(=O)CCC2 | > 99.5 µM
45 | CNc1nc(C(=O)N[C@@H](Cc2nn[nH]n2)c2ccc(OC)cc2)c2ccnc-2[nH]1 | 45.7 µM and 44.7 µM
46 | O=S(=O)(Cc1ccc(F)cc1)Nc1cnc2[nH]ccc2c1 | > 99.5 µM
47 | CC(C)[C@H](NC(=O)c1ncnc2[nH]ccc12)c1ccc2c(c1)S(=O)(=O)CCC2 | > 99.5 µM
48 | Cc1nccc(C(=O)N2CCC(c3ccn4ncc(C(=O)N5CCCCC5)c4c3)CC2)n1 | > 99.5 µM

Row | SMILES | IC50
49 | CC(C)[C@@H](Nc1cc(N2CCOCC2)ncn1)c1ccc2c(c1)S(=O)(=O)CCC2 | > 99.5 µM
50 | CC(C)[C@@H](Nc1ncnc2[nH]c(C(=O)NCCC3CN(C)C3)cc12)c1ccc2c(c1)OCCO2 | 0.894 µM
51 | CN(C)C(=O)c1cccc(S(=O)(=O)Nc2cnc3[nH]ccc3c2)c1 | > 99.5 µM
52 | COCc1cc(CNc2ccc([C@@H](CC(=O)O)NC(=O)c3ncnc4[nH]ccc34)cc2)on1 | 10.6 µM and 12.4 µM
53 | Cc1[nH]c2ncnc(NC(=O)[C@@H](CC(F)F)C3CCC3)c2c1C | 8.19 µM and 8.22 µM
54 | CCNC(=O)c1cc2c(NC3(c4ccc5c(c4)S(=O)(=O)CCC5)CC3)ncnc2[nH]1 | 24.6 µM
55 | O=C(O)C[C@@H](NC(=O)c1ccc2[nH]ccc2n1)c1ccc(Br)cc1 | 41.2 µM and 38.3 µM
56 | CC(C)[C@@H](CCN(C)C(=O)c1cccc2cc(F)ccc12)Nc1ncnc2[nH]ccc12 | > 99.5 µM
57 | CC(C)[C@@H](Nc1ncnc2[nH]c(-c3cnn(C(C)C)c3C#N)cc12)c1ccc2c(c1)OCCO2 | 1.84 µM and 2.02 µM
58 | CC(C)[C@@H](Nc1ncnc2[nH]c(Br)cc12)c1ccc2c(c1)S(=O)(=O)CCC2 | 0.336 µM
59 | CCc1coc(Nc2ccc([C@@H](CC(=O)O)NC(=O)c3ncnc4[nH]ccc34)cc2)n1 | 13.9 µM and 15.5 µM
60 | CC(C)[C@@H](Nc1ncnc2[nH]c(-c3cc4c(cc3F)NC(=O)CC4)cc12)c1ccc2c(c1)S(=O)(=O)CCC2 | 0.297 µM and 0.189 µM and 0.345 µM
61 | CC(C)[C@@H](NC(=O)c1ccnc(-n2ccnc2)c1)c1ccc2c(c1)OCCO2 | > 99.5 µM
62 | CC(C)[C@@H](Nc1ncnc2[nH]c([C@@H]3CCOC3)cc12)c1ccc2c(c1)OCCO2 | 1.86 µM and 1.95 µM
63 | CC(C)[C@@H](Nc1ncnc2[nH]c(-c3cnn(C)n3)cc12)c1ccc2c(c1)OCCO2 | 0.485 µM and 0.517 µM
64 | CC(C)[C@H](Nc1ncnc2[nH]c(-c3cnn(C)c3C#N)cc12)c1ccc2c(n1)NC(=O)CO2 | 0.101 µM and 0.095 µM
65 | CC(C)[C@@H](Nc1ncnc2[nH]c(-c3cnn(C)c3)cc12)c1ccc2c(c1)S(=O)(=O)CCO2 | 0.043 µM and 0.051 µM
66 | Cc1ccc2c(c1)C[C@@H](C(=O)N(C)CC[C@@H](Nc1ncnc3[nH]ccc13)C(C)C)S2 | > 99.5 µM
67 | Cc1noc(C)c1-c1cc2c(N[C@@H](c3ccc4c(c3)OCCO4)C(C)C)ncnc2[nH]1 | 16.7 µM and 18.5 µM
68 | O=C(Nc1ncnc2c(C(=O)Nc3ccccc3C(=O)N3CCCC3)csc12)NC1CC1 | > 99.5 µM
69 | CC(C)[C@@H](Nc1ncnc2[nH]c(-c3ccc4c(c3)C(C)(C)C(=O)N4)cc12)c1ccc2c(c1)S(=O)(=O)CCC2 | 0.334 µM
70 | Cc1n[nH]c(C)c1-c1cc2c(N[C@@H](c3ccc4c(c3)OCCO4)C(C)C)ncnc2[nH]1 | 31.7 µM
71 | CO[C@@H]1C[C@@H](C(=O)O)N(c2ncnc3[nH]ccc23)C1 | > 99.5 µM
72 | Cc1[nH]c2ncnc(NCc3ccco3)c2c1C | > 99.5 µM

Row | SMILES | IC50
73 | O=C(O)[C@@H](CC1CC1)Nc1ncnc2[nH]ccc12 | > 99.5 µM
74 | O=C(O)C[C@@H](NC(=O)c1ncnc2[nH]c3cc(F)ccc3c12)c1ccc(Br)cc1 | 0.992 µM and 1.01 µM
75 | O=C(N[C@@H]1CCC[C@@H]1C(=O)O)c1cnn2ccc(C3CCN(C(=O)c4ccc(Cl)cc4)CC3)cc12 | 32.5 µM and 24.5 µM
76 | Cc1nc2c(C(=O)N[C@@H](CC(=O)O)c3ccc(Br)cc3)ccnc2[nH]1 | 20.6 µM and 20.2 µM
77 | O=C(Nc1cccc2c(C(=O)Nc3ccccc3C(=O)O)c[nH]c12)NC1CC1 | 19.9 µM and 20 µM
78 | CC(C)[C@@H](Nc1ncnc2[nH]c(C(=O)N[C@H]3[C@@H]4CN(C)C[C@@H]43)cc12)c1ccc2c(c1)OCCO2 | 1.1 µM and 2.06 µM
79 | CC(C)[C@@H](Nc1ncnc2[nH]c(C(=O)NCc3c[nH]cn3)cc12)c1ccc2c(c1)OCCO2 | 1.15 µM and 2.57 µM
80 | O=C(c1c[nH]c(=O)cn1)N1CCC(c2ccn3ncc(C(=O)N4CCCCC4)c3c2)CC1 | 78.4 µM
81 | CC(C)[C@@H](Nc1ncnc2[nH]c(-c3cc(O)nc4ccccc34)cc12)c1ccc2c(c1)S(=O)(=O)CCC2 | 1.67 µM
82 | Cc1[nH]c2ncnc(NC(=O)c3ccc(C(F)(F)F)nc3)c2c1C | > 99.5 µM
83 | O=C(O)[C@@H](Nc1ncnc2[nH]ccc12)C1CC(F)(F)C1 | > 99.5 µM
84 | CC(C)[C@@H](Nc1ncnc2[nH]c(-c3cc[nH]n3)cc12)c1ccc2c(c1)OCCO2 | 1.81 µM and 1.88 µM
85 | CCNC(=O)c1cc2c(N[C@@H](c3ccc4c(n3)NC(=O)CO4)C(C)C)ncnc2[nH]1 | 1.06 µM and 0.574 µM
86 | CC(C)[C@@H](Nc1n[nH]c2ncccc12)c1ccc2c(c1)S(=O)(=O)CCC2 | 43.5 µM
87 | NC(=O)[C@@H](NC(=O)c1ncnc2[nH]ccc12)c1ccc(Br)cc1 | > 99.5 µM
88 | COc1ccc([C@@H](Nc2ncnc3[nH]ccc23)C(C)C)cc1 | 6.36 µM and 8.21 µM
89 | Cc1[nH]c2ncnc(NC(=O)c3ccc(Cl)cn3)c2c1C | > 99.5 µM
90 | CCNC(=O)c1cc2c(N[C@H](c3ccnc(N)c3)C(C)C)ncnc2[nH]1 | 1.79 µM
91 | O=C(NCc1nc(-c2cc3c(N4CCCC5(CC5)C4)ncnc3[nH]2)c[nH]1)c1ccc(F)nc1 | 24.8 µM and 20.8 µM
92 | COCCNC(=O)c1c[nH]c2ncnc(N[C@@H](c3ccc4c(c3)S(=O)(=O)CCC4)C(C)C)c12 | 0.326 µM
93 | CC(C)[C@@H](Nc1ncnc2[nH]c(-c3cnc(N4CC(O)C4)nc3)cc12)c1ccc2c(c1)S(=O)(=O)CCC2 | 0.094 µM and 0.068 µM and 0.116 µM
